From ChEMBL document CHEMBL1142790, “Carbonic anhydrase inhibitors: inhibition of the transmembrane isozyme XIV with sulfonamides” (Bioorg Med Chem Lett, 2005)

molecular target: Carbonic anhydrase 14 (Homo sapiens, UniProt Q9ULX7)
Sequence (Q9ULX7 whole entry): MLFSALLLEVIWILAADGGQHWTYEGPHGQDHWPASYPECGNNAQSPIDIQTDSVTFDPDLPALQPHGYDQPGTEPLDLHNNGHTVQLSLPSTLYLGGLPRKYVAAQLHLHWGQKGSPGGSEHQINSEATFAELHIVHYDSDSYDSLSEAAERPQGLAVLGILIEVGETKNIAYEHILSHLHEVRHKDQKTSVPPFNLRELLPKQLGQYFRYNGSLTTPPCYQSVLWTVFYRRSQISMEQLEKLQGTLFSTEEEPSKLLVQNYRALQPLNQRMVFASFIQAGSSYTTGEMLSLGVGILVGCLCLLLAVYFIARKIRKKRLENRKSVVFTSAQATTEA

Row | SMILES | Ki
1 | Nc1ccc(S(N)(=O)=O)cc1 [SULFANILAMIDE] | 5400 nM
2 | NS(=O)(=O)c1ccc(C(=O)O)cc1 [CARZENIDE] | 780 nM
3 | Cn1nc(S(N)(=O)=O)sc1=N | 245 nM
4 | Nc1nccc(Nc2ccc(S(N)(=O)=O)cc2)n1 | 89 nM
5 | CCN[C@H]1CN(CCCOC)S(=O)(=O)c2sc(S(N)(=O)=O)cc21 [BRINZOLAMIDE] | 24 nM
6 | Nc1cccc(S(N)(=O)=O)c1 | 4800 nM
7 | Nc1ccc(S(N)(=O)=O)cc1Br | 15 nM
8 | NS(=O)(=O)c1ccc(CCO)cc1 | 3260 nM
9 | NCc1ccc(S(N)(=O)=O)cc1 [MAFENIDE] | 3200 nM
10 | Nc1ccc(S(N)(=O)=O)cc1Cl | 21 nM
11 | NS(=O)(=O)c1ccc(CO)cc1 | 3840 nM
12 | Nc1ccc(S(=O)(=O)Nc2nnc(S(N)(=O)=O)s2)cc1 | 13 nM
13 | NNc1ccc(S(N)(=O)=O)cc1 | 1450 nM
14 | Nc1ccc(S(=O)(=O)NCCc2ccc(S(N)(=O)=O)cc2)cc1 | 76 nM
15 | Nc1nnc(S(N)(=O)=O)s1 | 280 nM
16 | Nc1ccc(S(N)(=O)=O)cc1F | 180 nM
17 | Nc1ccccc1S(N)(=O)=O | 6500 nM

molecular target: Carbonic anhydrase 12 (Homo sapiens, UniProt O43570)
Sequence (O43570 whole entry): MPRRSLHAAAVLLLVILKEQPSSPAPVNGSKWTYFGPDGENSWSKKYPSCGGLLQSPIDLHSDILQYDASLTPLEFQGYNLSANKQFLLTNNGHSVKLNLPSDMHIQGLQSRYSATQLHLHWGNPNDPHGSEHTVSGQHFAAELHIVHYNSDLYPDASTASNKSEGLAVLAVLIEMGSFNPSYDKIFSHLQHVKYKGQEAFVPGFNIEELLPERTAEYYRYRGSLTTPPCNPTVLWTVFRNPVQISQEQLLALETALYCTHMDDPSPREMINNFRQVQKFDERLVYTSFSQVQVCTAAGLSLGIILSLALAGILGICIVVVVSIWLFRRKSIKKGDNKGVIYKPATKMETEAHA

Row | SMILES | Ki
18 | Nc1cccc(S(N)(=O)=O)c1 | 125 nM
19 | NNc1ccc(S(N)(=O)=O)cc1 | 11 nM
20 | Nc1ccccc1S(N)(=O)=O | 85 nM
